Assay results as given in PubChem BioAssay (NCI).
Where “and” joins values, the source holds several entries; their conditions need not be identical. Equal entries are not always repeated.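 Results reflect a 48-hour exposure of cells in 96-well plates to compound at five concentrations. GI50 is the concentration that inhibits growth by half. At the TGI there is no net growth.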

Experiments:
Assay in all cases: NCI anticancer screen, dose series, 48 h
SK-OV-3 ovarian = system: SK-OV-3 ovarian
LOX IMVI melanoma = system: LOX IMVI melanoma
RPMI-8226 leukemia = system: RPMI-8226 leukemia
HOP-92 NSCLC = system: HOP-92 NSCLC
EKVX NSCLC = system: EKVX NSCLC
A549 NSCLC = system: A549 NSCLC
SNB-19 CNS = system: SNB-19 CNS
HCT-15 colon = system: HCT-15 colon
NCI-H460 lung = system: NCI-H460 lung
OVCAR-3 ovarian = system: OVCAR-3 ovarian

C=C1C(=O)C23C(O)C1CCC2C12CO[C@]3(O)[C@@H](O)C1C(C)(C)CCC2O (some centres not stated)
TGI (SK-OV-3 ovarian): 34.5 µM
TGI (LOX IMVI melanoma): 31.4 µM
TGI (RPMI-8226 leukemia): > 100 µM
TGI (HOP-92 NSCLC): 8.99 µM
TGI (EKVX NSCLC): 28.9 µM
TGI (A549 NSCLC): 34.6 µM
TGI (SNB-19 CNS): 28.6 µM
TGI (HCT-15 colon): 26.4 µM
TGI (NCI-H460 lung): 29.2 µM
TGI (OVCAR-3 ovarian): 30.3 µM

Cn1cc(-c2ccc3c(c2)ncn3-c2ccc(CC(=O)Nc3cc(C(C)(C)C)on3)cc2)cn1
GI50 (SK-OV-3 ovarian): 1.01 µM
TGI (SK-OV-3 ovarian): 4.33 µM
GI50 (LOX IMVI melanoma): 0.732 µM
TGI (LOX IMVI melanoma): 4.87 µM
GI50 (RPMI-8226 leukemia): 3.35 µM
TGI (RPMI-8226 leukemia): > 100 µM
GI50 (HOP-92 NSCLC): 0.227 µM
TGI (HOP-92 NSCLC): 1.42 µM
GI50 (EKVX NSCLC): 1.75 µM
TGI (EKVX NSCLC): 31.1 µM
GI50 (A549 NSCLC): 1.49 µM
TGI (A549 NSCLC): 8.76 µM
GI50 (SNB-19 CNS): 3.5 µM
TGI (SNB-19 CNS): > 100 µM
GI50 (HCT-15 colon): 1.19 µM
TGI (HCT-15 colon): > 40.9 µM
GI50 (NCI-H460 lung): 2.45 µM
TGI (NCI-H460 lung): > 37.7 µM
GI50 (OVCAR-3 ovarian): 2.06 µM
TGI (OVCAR-3 ovarian): > 39.8 µM

NCCCNCCCNc1nc2ccccc2c2[nH]c3ccccc3c12
GI50 (SK-OV-3 ovarian): 0.743 µM and 0.322 µM
TGI (SK-OV-3 ovarian): 4.14 µM and 3.42 µM
GI50 (LOX IMVI melanoma): 0.0363 µM
TGI (LOX IMVI melanoma): 1.12 µM
GI50 (RPMI-8226 leukemia): 0.343 µM
TGI (RPMI-8226 leukemia): 3.51 µM
GI50 (HOP-92 NSCLC): 0.173 µM
TGI (HOP-92 NSCLC): 0.747 µM
GI50 (EKVX NSCLC): 2.09 µM
TGI (EKVX NSCLC): 5.8 µM
GI50 (A549 NSCLC): 0.0509 µM
TGI (A549 NSCLC): 4.05 µM
GI50 (SNB-19 CNS): 0.0785 µM
TGI (SNB-19 CNS): 1.42 µM
GI50 (HCT-15 colon): 0.307 µM
TGI (HCT-15 colon): 4.95 µM
GI50 (NCI-H460 lung): 0.0399 µM
TGI (NCI-H460 lung): 1.74 µM
GI50 (OVCAR-3 ovarian): 0.449 µM
TGI (OVCAR-3 ovarian): 2.43 µM

COc1ccccc1NS(=O)(=O)c1cc(C(C)(C)C)ccc1OCCOc1ccc(C(C)(C)C)cc1S(=O)(=O)Nc1ccccc1OC
TGI (SK-OV-3 ovarian): > 100 µM
TGI (LOX IMVI melanoma): > 100 µM
TGI (RPMI-8226 leukemia): > 100 µM
TGI (HOP-92 NSCLC): > 100 µM
TGI (EKVX NSCLC): > 100 µM
TGI (A549 NSCLC): > 100 µM
TGI (SNB-19 CNS): > 100 µM
TGI (HCT-15 colon): > 100 µM
TGI (NCI-H460 lung): > 100 µM
TGI (OVCAR-3 ovarian): > 100 µM

CCN(CC)c1ccc(/C=C/C2=[N+](C)c3ccccc3C2(C)C)cc1
GI50 (SK-OV-3 ovarian): 0.275 µM
TGI (SK-OV-3 ovarian): 2.79 µM
GI50 (LOX IMVI melanoma): 0.251 µM
TGI (LOX IMVI melanoma): 23 µM
GI50 (RPMI-8226 leukemia): 0.0557 µM
TGI (RPMI-8226 leukemia): > 61.6 µM
GI50 (HOP-92 NSCLC): 0.766 µM
TGI (HOP-92 NSCLC): > 35.2 µM
GI50 (EKVX NSCLC): 0.235 µM
TGI (EKVX NSCLC): 14 µM
GI50 (A549 NSCLC): 0.518 µM
TGI (A549 NSCLC): > 100 µM
GI50 (SNB-19 CNS): 0.326 µM
TGI (SNB-19 CNS): 15.4 µM
GI50 (HCT-15 colon): 3.34 µM
TGI (HCT-15 colon): > 49.4 µM
GI50 (NCI-H460 lung): 0.312 µM
TGI (NCI-H460 lung): 15.8 µM
GI50 (OVCAR-3 ovarian): 0.281 µM
TGI (OVCAR-3 ovarian): 13.2 µM

S=c1nc(/C=C/c2ccc(Cl)c(Cl)c2)[nH][nH]1
TGI (SK-OV-3 ovarian): > 100 µM
TGI (LOX IMVI melanoma): > 100 µM
GI50 (RPMI-8226 leukemia): 51.4 µM
TGI (RPMI-8226 leukemia): > 100 µM
GI50 (HOP-92 NSCLC): 0.802 µM
TGI (HOP-92 NSCLC): 64.6 µM
TGI (EKVX NSCLC): > 100 µM
TGI (A549 NSCLC): > 100 µM
TGI (SNB-19 CNS): > 100 µM
TGI (HCT-15 colon): > 100 µM
TGI (NCI-H460 lung): > 100 µM
TGI (OVCAR-3 ovarian): > 100 µM

COc1ccc2c(c1)C(=O)/C(=C/c1ccc(OCC(=O)c3ccc(Cl)cc3)cc1)O2
GI50 (SK-OV-3 ovarian): 62.5 µM
TGI (SK-OV-3 ovarian): > 100 µM
GI50 (LOX IMVI melanoma): 5.44 µM
TGI (LOX IMVI melanoma): 19.8 µM
GI50 (RPMI-8226 leukemia): 3.87 µM
TGI (RPMI-8226 leukemia): 21.6 µM
GI50 (HOP-92 NSCLC): 15.7 µM
TGI (HOP-92 NSCLC): 37.1 µM
GI50 (EKVX NSCLC): 25.6 µM
TGI (EKVX NSCLC): > 100 µM
GI50 (A549 NSCLC): 31.4 µM
TGI (A549 NSCLC): > 100 µM
GI50 (SNB-19 CNS): 48.2 µM
TGI (SNB-19 CNS): > 100 µM
GI50 (HCT-15 colon): 12.6 µM
TGI (HCT-15 colon): 26.3 µM
GI50 (NCI-H460 lung): 29.7 µM
TGI (NCI-H460 lung): > 100 µM
GI50 (OVCAR-3 ovarian): 12.3 µM
TGI (OVCAR-3 ovarian): 24.8 µM
